Inhibition and IC50 data for 27 molecules are collected here from patent US20110166121A1 (LG LIFE SCIENCES LTD., priority 2008, published 2011).

The test addresses T1, Human P2Y12 receptor (Homo sapiens, UniProt Q9H244).
T1 construct: expressed in transfected cells; host or cells: HEK cells
Nature of the test: Human P2Y12 receptor cell membrane binding assay with [3H] 2-Mes-ADP. Conditions: 1 nM [3H] 2-Mes-ADP; for inhibition at 30 µM: 30 μM compound; for IC50: membranes of HEK cells expressing P2Y12 receptor, read-out: Binding activity (IC50). Here is the method: Human P2Y12 Receptor Cell Membrane Binding Assay with [^3H] 2-Mes-ADP
Whether test compounds bind to P2Y12 receptor is measured by [3H]-2MesADP binding in HEK cells expressing P2Y12 receptor. The efficacy according to the amount of test compound can be known through the above test, competitive binding test to P2Y12 receptor, in which the binding material (2-Mes-ADP) is labeled with radioactivity isotope and then the extent of inhibition against the binding of radioactively labeled material is measured.
Preparation of P2Y12 Membrane Protein Fraction
Harvested P2Y12 cells were resuspended with Hypotonic buffer (10 mM HEPES, 10 mM NaCl, 1 mM EDTA, 1 mM EGTA pH 7.4) containing protease inhibitor cocktail. Following the incubation on ice for 15 min, cells were homogenized on ice (Glass/Teflon homogenizer; 1,000 rpm, 10 strokes). The supernant was taken from centrifugation at 500×g for 15 min and then recentrifuged the supernant at 30,000 rpm for 30 min. The membrane pellet was adjusted to 1 mg/mL concentration and stored at −80° C.
P2Y12 Receptor Cell Membrane Binding Assay with [3H] 2-Mes-ADP
The volume of 100 μL of 200 μg membrane protein was aliquoted into 96 well plate. 50 μL volume of test compounds and [^3H] 2-Mes-ADP (final: 1 nM) were added into each well. The total reaction of 0.2 ml/well was incubated for 1 hour at R.T. The reaction was terminated by filtration through GF/B filter using a 96-well cell harvester. […] Radioactivity bound to P2Y12 receptor membrane was counted in a scintillation counter. Total binding was determined with CPM of test group having no compound and non-specific binding was determined with CPM of test group containing 10 μM 2-Mes-ADP. Binding inhibition percent was calculated as follows: [100−(specific binding in the presence of test material/specific binding in the absence of test material×100)].

SMILES strings stand for the structures.

As a reminder, the inhibition is the share of the control response that was lost under treatment. Read a high inhibition as strong suppression. One may read the IC50 as the midpoint of a concentration-inhibition curve.

T1 sequence (Q9H244 whole entry): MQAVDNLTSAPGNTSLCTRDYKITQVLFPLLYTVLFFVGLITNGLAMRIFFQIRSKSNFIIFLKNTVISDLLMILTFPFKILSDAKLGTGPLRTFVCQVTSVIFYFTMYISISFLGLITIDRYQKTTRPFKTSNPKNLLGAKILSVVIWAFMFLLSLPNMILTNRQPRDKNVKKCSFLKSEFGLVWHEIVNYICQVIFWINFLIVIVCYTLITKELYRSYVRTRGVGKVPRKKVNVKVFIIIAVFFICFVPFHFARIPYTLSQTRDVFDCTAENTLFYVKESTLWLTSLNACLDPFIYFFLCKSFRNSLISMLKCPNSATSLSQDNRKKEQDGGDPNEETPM

With `CCc1cc2c(N3CCn4cnnc4C3)nc(OCC(O)CO)nc2s1` (stereo not drawn) [Example 6-11, 3-[4-(5,6-Dihydro-8H-[1,2,4]triazolo[4,3-a]pyrazin-7-yl)-6-ethyl-thieno[2,3-d]pyrimidin-2-yloxy]-propane-1,2-diol], the inhibition at 30 µM is 39.3%. As to `CCc1cc2c(N3CCn4c(nnc4-c4ccccc4)C3)nc(N3CCNC(=O)C3)nc2s1` [Example 6-19, 4-[6-Ethyl-4-(3-phenyl-5,6-dihydro-8H-[1,2,4]triazolo[4,3-a]pyrazin-7-yl)-thieno[2,3-d]pyrimidin-2-yl]-piperazin-2-one], the IC50 amounted to 1.95 µM. Still for that read-out and setting: in the case of `CCc1cc2c(N3CCn4ccnc4C3)nc(N3CCNC(=O)C3)nc2s1` [Example 6-20, 4-[4-(5,6-Dihydro-8H-imidazo[1,2-a]pyrazin-7-yl)-6-ethyl-thieno[2,3-d]pyrimidin-2-yl]-piperazin-2-one] it was 7.64 µM; in that of `CCc1cc2c(N3CCn4ccnc4C3)nc(OCC(O)CO)nc2s1` (stereo not drawn) [Example 6-21, 3-[4-(5,6-Dihydro-8H-imidazo[1,2-a]pyrazin-7-yl)-6-ethyl-thieno[2,3-d]pyrimidin-2-yloxy]-propane-1,2-diol], 14.5 µM.

For `CCc1cc2c(N3CCn4cc(C(F)(F)F)nc4C3)nc(N3CCNC(=O)C3)nc2s1` [Example 6-22, 4-[6-Ethyl-4-(2-trifluoromethyl-5,6-dihydro-8H-imidazo[1,2-a]pyrazin-7-yl)-thieno[2,3-d]pyrimidin-2-yl]-piperazin-2-one], the IC50 amounted to 10 µM. On to `CCc1cc2c(N3CCn4cc(C(F)(F)F)nc4C3)nc(OCC(O)CO)nc2s1` (stereo not drawn) [Example 6-23, 3-[6-Ethyl-4-(2-trifluoromethyl-5,6-dihydro-8H-imidazo[1,2-a]pyrazin-7-yl)-thieno[2,3-d]pyrimidin-2-yloxy]-propane-1,2-diol], for which the IC50 is 12 µM. Still for that read-out and setting: then `CCc1cc2c(N3CCc4[nH]ncc4C3)nc(N3CCNC(=O)C3)nc2s1` [Example 6-24, 4-[6-Ethyl-4-(1,4,6,7-tetrahydro-pyrazolo[4,3-c]pyridin-5-yl)-thieno[2,3-d]pyrimidin-2-yl]-piperazin-2-one], with 30 µM. As to `CCc1cc2c(N3CCc4[nH]ncc4C3)nc(OCC(O)CO)nc2s1` (stereo not drawn) [Example 6-25, 3-[6-Ethyl-4-(1,4,6,7-tetrahydro-pyrazolo[4,3-c]pyridin-5-yl)-thieno[2,3-d]pyrimidin-2-yloxy]-propane-1,2-diol], 30 µM produced 38.6% inhibition. For the molecule `CCc1cc2c(N3CCc4[nH]nc(C(F)(F)F)c4C3)nc(N3CCNC(=O)C3)nc2s1` [Example 6-26, 4-[6-Ethyl-4-(3-trifluoromethyl-1,4,6,7-tetrahydro-pyrazolo[4,3-c]pyridin-5-yl)-thieno[2,3-d]pyrimidin-2-yl]-piperazin-2-one], the IC50 was determined as 16.4 µM. The same measure, in the same setting: then `CCc1cc2c(N3CCc4ccccc4C3)nc(N3CCNC(=O)C3)nc2s1` [Example 6-27, 4-[4-(3,4-Dihydro-1H-isoquinolin-2-yl)-6-ethyl-thieno[2,3-d]pyrimidin-2-yl]-piperazin-2-one], with 10 µM; and `CCc1cc2c(N3CCc4cc(OC)c(OC)cc4C3)nc(N3CCNC(=O)C3)nc2s1` [Example 6-28, 4-[4-(6,7-Dimethoxy-3,4-dihydro-1H-isoquinolin-2-yl)-6-ethyl-thieno[2,3-d]pyrimidin-2-yl]-piperazin-2-one], with 5.6 µM; and `CCc1cc2c(N3CCc4c([nH]c5ccccc45)C3)nc(N3CCNC(=O)C3)nc2s1` [Example 6-29, 4-[6-Ethyl-4-(1,3,4,9-tetrahydro-beta-carbolin-2-yl)-thieno[2,3-d]pyrimidin-2-yl]-piperazin-2-one], with 29.8 µM. In the case of `CCc1cc2c(N3CCc4c(ncnc4C(F)(F)F)C3)nc(N3CCNC(=O)C3)nc2s1` [Example 6-30, 4-[6-Ethyl-4-(4-trifluoromethyl-5,8-dihydro-6H-pyrido[3,4-d]pyrimidin-7-yl)-thieno[2,3-d]pyrimidin-2-yl]-piperazin-2-one], the IC50 is 1.04 µM.

On to `CCc1cc2c(N3CCc4c(nc(C(F)(F)F)nc4C(F)(F)F)C3)nc(N3CCNC(=O)C3)nc2s1` [Example 6-31, 4-[4-(2,4-Bis-trifluoromethyl-5,8-dihydro-6H-pyrido[3,4-d]pyrimidin-7-yl)-6-ethyl-thieno[2,3-d]pyrimidin-2-yl]-piperazin-2-one], for which the IC50 was found to be 4.66 µM.

Take `CCc1cc2c(N3CCc4c(nc(C(F)(F)F)nc4C(F)(F)F)C3)nc(OCC(O)CO)nc2s1` (stereo not drawn) [Example 6-32, 3-[4-(2,4-Bis-trifluoromethyl-5,8-dihydro-6H-pyrido[3,4-d]pyrimidin-7-yl)-6-ethyl-thieno[2,3-d]pyrimidin-2-yloxy]-propane-1,2-diol]: the half-inhibitory concentration (IC50) worked out at 4.64 µM. On to `CCCc1cc2c(N3CCc4c(nc(C(F)(F)F)nc4C(F)(F)F)C3)nc(N3CCNC(=O)C3)nc2s1` [Example 6-33, 4-[4-(2,4-Bis-trifluoromethyl-5,8-dihydro-6H-pyrido[3,4-d]pyrimidin-7-yl)-6-propyl-thieno[2,3-d]pyrimidin-2-yl]-piperazin-2-one], for which the IC50 worked out at 2.37 µM. Regarding `CCc1cc2c(N3CCc4c(nc(C)nc4C(F)(F)F)C3)nc(N3CCNC(=O)C3)nc2s1` [Example 6-34, 4-[6-Ethyl-4-(2-methyl-4-trifluoromethyl-5,8-dihydro-6H-pyrido[3,4-d]pyrimidin-7-yl)-thieno[2,3-d]pyrimidin-2-yl]-piperazin-2-one], the IC50 stood at 0.12 µM. For `CCc1cc2c(N3CCc4c(nc(C)nc4C(F)(F)F)C3)nc(OCC(O)CO)nc2s1` (stereo not drawn) [Example 6-35, 3-[6-Ethyl-4-(2-methyl-4-trifluoromethyl-5,8-dihydro-6H-pyrido[3,4-d]pyrimidin-7-yl)-thieno[2,3-d]pyrimidin-2-yloxy]-propane-1,2-diol], the IC50 is 2.3 µM. Regarding `CCCc1cc2c(N3CCc4c(nc(C)nc4C(F)(F)F)C3)nc(N3CCNC(=O)C3)nc2s1` [Example 6-36, 4-[4-(2-Methyl-4-trifluoromethyl-5,8-dihydro-6H-pyrido[3,4-d]pyrimidin-7-yl)-6-propyl-thieno[2,3-d]pyrimidin-2-yl]-piperazin-2-one], the IC50 was 0.64 µM. Turning to `CCc1cc2c(N3CCc4c(nc(-c5ccccc5)nc4C(F)(F)F)C3)nc(N3CCNC(=O)C3)nc2s1` [Example 6-37, 4-[6-Ethyl-4-(2-phenyl-4-trifluoromethyl-5,8-dihydro-6H-pyrido[3,4-d]pyrimidin-7-yl)-thieno[2,3-d]pyrimidin-2-yl]-piperazin-2-one], the IC50 was determined as 0.4 µM.

As to `CCCc1cc2c(N3CCc4c(nc(-c5ccccc5)nc4C(F)(F)F)C3)nc(N3CCNC(=O)C3)nc2s1` [Example 6-38, 4-[4-(2-Phenyl-4-trifluoromethyl-5,8-dihydro-6H-pyrido[3,4-d]pyrimidin-7-yl)-6-propyl-thieno[2,3-d]pyrimidin-2-yl]-piperazin-2-one], the half-inhibitory concentration (IC50) amounted to 4.42 µM. The same measure, in the same setting: in the case of `CCc1cc2c(N3CCc4c(nc(-c5ccoc5)nc4C(F)(F)F)C3)nc(N3CCNC(=O)C3)nc2s1` [Example 6-39, 4-[6-Ethyl-4-(2-furan-3-yl-4-trifluoromethyl-5,8-dihydro-6H-pyrido[3,4-d]pyrimidin-7-yl)-thieno[2,3-d]pyrimidin-2-yl]-piperazin-2-one] it was 1.5 µM. The same measure, in the same setting: in the case of `CCc1cc2c(N3CCc4c(nc(-c5ccoc5)nc4C(F)(F)F)C3)nc(NCC(O)CO)nc2s1` (stereo not drawn) [Example 6-40, 3-[6-Ethyl-4-(2-furan-3-yl-4-trifluoromethyl-5,8-dihydro-6H-pyrido[3,4-d]pyrimidin-7-yl)-thieno[2,3-d]pyrimidin-2-ylamino]-propane-1,2-diol] it was 1.95 µM. On to `CCc1cc2c(N3CCc4c([nH]n(C)c4=O)C3)nc(N3CCNC(=O)C3)nc2s1` [Example 6-41, 6-[6-Ethyl-2-(3-oxo-piperazin-1-yl)-thieno[2,3-d]pyrimidin-4-yl]-2-methyl-1,2,4,5,6,7-hexahydro-pyrazolo[3,4-c]pyridin-3-one], for which the inhibition at 30 µM stood at 23.6%. `CCc1cc2c(N3CCc4c([nH]n(C)c4=O)C3)nc(OCC(O)CO)nc2s1` (stereo not drawn) [Example 6-42, 6-[2-(2,3-Dihydroxy-propoxy)-6-ethyl-thieno[2,3-d]pyrimidin-4-yl]-2-methyl-1,2,4,5,6,7-hexahydro-pyrazolo[3,4-c]pyridin-3-one] gave an inhibition at 30 µM of 26.4%. On to `CCc1cc2c(N3CCc4c([nH]n(CCO)c4=O)C3)nc(N3CCNC(=O)C3)nc2s1` [Example 6-43, 6-[6-Ethyl-2-(3-oxo-piperazin-1-yl)-thieno[2,3-d]pyrimidin-4-yl]-2-(2-hydroxy-ethyl)-1,2,4,5,6,7-hexahydro-pyrazolo[3,4-c]pyridin-3-one], for which the 50% inhibitory concentration (IC50) came out at 46.4 µM.

Consider `CCc1cc2c(N3CCc4c([nH]n(-c5ccccc5)c4=O)C3)nc(N3CCNC(=O)C3)nc2s1` [Example 6-44, 6-[6-Ethyl-2-(3-oxo-piperazin-1-yl)-thieno[2,3-d]pyrimidin-4-yl]-2-phenyl-1,2,4,5,6,7-hexahydro-pyrazolo[3,4-c]pyridin-3-one], for which the IC50 was found to be 21.5 µM.
